# What was measured:
# soybean = assay: Example 2: soybean nodule weight one week after foliar spray; format: in vivo
# Experimental: Medium-term fertilizer effect type culture soil (Takii hydrous cell medium-term fertilizer effect type, Takii & Co., Ltd.) and vermiculite grains (Akagi-Engei Co., Ltd.) were mixed at a volume ratio of 1:1, and the soil was placed in a polypot (diameter: 10.5 cm, height: 9 cm). The soybean seeds used were “Enrei” (purchased from Nikko Seed Co. Ltd.). After tap water was supplied in an amount of 250 mL per pot, 2 seeds per pot were each sown at a depth of from about 1 to 2 cm from the soil surface. The number of repeats in each test plot was 6 (n=6).
# 1.5% agar (Wako Pure Chemical Industries, Ltd.) was added to Yeast-Mannitol (YM) medium (0.5 g of K2HPO4, 0.2 g of MgSO4-7H2O, 0.1 g of NaCl, 0.4 g of yeast extract, 10 g of mannitol, and 1 L of distilled water (pH: 6.8)) to prepare a solid medium, and a soybean Rhizobium (Bradyrhizobium japonicum) NBRC14783T strain was grown on the solid medium. A platinum loop of the grown Rhizobium was taken and inoculated in 50 mL of YM liquid medium in a Sakaguchi flask with a volume of 500 mL, and shake-cultured at 30° C. for about 36 hours. A Rhizobium culture solution whose value of turbidity OD600 of bacterial cells was about 0.3 was prepared. […]
# The mean and the standard deviation were calculated from the data of four repeats, excluding the highest and the lowest values from the six repeats in each test plot.
# Lotus japonicus = assay: Example 8: number of pods and seed weight in Lotus japonicus; format: in vivo; conditions: ascorbic acid 1,500 ppm, tap water vs deionized water
# Experimental: Medium-term fertilizer effect type culture soil (Takii hydrous cell medium-term fertilizer effect type, Takii & Co., Ltd.) and vermiculite grains (Akagi-Engei Co., Ltd.) were mixed at a volume ratio of 1:1, and the soil was placed in a polypot (diameter: 6 cm, height: 5.5 cm).
# The Lotus japonicus seeds used were Miyakojima MG-20 lineage. To a 2 mL microtube (Eppendorf) filled approximately ⅓ with the seeds, 1 mL of concentrated sulfuric acid (FUJIFILM Wako Pure Chemical Corporation) was added and allowed to stand for 10 minutes. After rinsing five times with tap water, the seeds were soaked for two hours. After tap water was supplied in an amount of 100 mL per pot, 3 seeds, which had undergone germination treatment, per pot were each sown at a depth of from about 1 to 2 cm from the soil surface. The number of repeats in each test plot was 8 (n=8). […]
# For the preparation of the spraying solutions, BHT of the component (B) was previously dissolved in the component (C), and the components (C) and (D) were then mixed to prepare a second agent. […] The number of pods and seed weight of each plant were measured.
smiles,measurement,setting,value
"O=C1O[C@H]([C@@H](O)CO)C(O)=C1O [ascorbic acid, (R)-3,4-dihydroxy-5-((S)-1,2-dihydroxyethyl)furan-2(5H)-one]",nodule weight,"soybean; ascorbic acid 1,500 ppm dissolved in deionized water, soybean early growth stage",increased
same,application effect of ascorbic acid (nodule weight),"soybean; ascorbic acid 1,500 ppm dissolved in tap water",tended to decrease
same,effects on the seed weight,Lotus japonicus,varied in accordance with the water quality
